These are literature values, as cited in article PMC4291223, “Inhibitors of CLK Protein Kinases Suppress Cell Growth and Induce Apoptosis by Modulating Pre-mRNA Splicing” (PLoS ONE, 2015).

The test system of the data set is CLK1 and CLK4. On the set-up: method as in PMID 15010457. The following applies: cited from earlier work.

As for `CCN1/C(=C/C(C)=O)Sc2ccc(OC)cc21` [TG003], the CLK selectivity result is “selectively inhibits CLK1 and CLK4”.
